Experimental data taken from patent US20220002279A1, “NOVEL IMIDAZOLE DERIVATIVE” (priority 2018, published 2022).
Converted amounts (≈) assume the structure as drawn.

Legend:
Experiment in all cases: Antimicrobial activity, MIC by broth microdilution
Type in all cases: cell-based
[1] = test system: Escherichia coli strain ATCC25922; settings: ATCC25922, 18 h, cation-adjusted Mueller-Hinton broth, about 5×10^5 CFU/mL, 35° C., about 18 hours, read-out: MIC Escherichia coli ATCC25922
Text: (§1) Test Example 4 Evaluation of the Antimicrobial Activity
(§2) For minimum inhibitory concentration (MIC) measurement, the following broth microdilution method was applied as adapted from the standard procedure recommended by the CLSI (Clinical and Laboratory Standards Institute).
(§3) The bacteria used were Pseudomonas aeruginosa strain ATCC27853, Escherichia coli strain ATCC25922, and Klebsiella pneumoniae strain ATCC13883. After culture overnight on a heart infusion agar medium, the cells of a test bacterium were scraped off, and a bacterial solution suspended to have a turbidity of level 0.5 on the McFarland scale was diluted and used as an inoculum solution. The inoculum solution was inoculated in a cation-adjusted Mueller-Hinton broth medium containing a test compound so that the final inoculation concentration was about 5×10^5 CFU/mL, and cultured at 35° C. for about 18 hours. A minimum drug concentration at which no cell growth was visible to the naked eye was designated as MIC. […] In the table, ND represents the case where suppression of the cell growth in a drug concentration-dependent manner was not observed (Not Determined), and NT represents that no test was conducted (Not Tested).

[2] = test system: Klebsiella pneumoniae strain ATCC13883; settings: ATCC13883, cation-adjusted Mueller-Hinton broth, about 5×10^5 CFU/mL, 35° C., about 18 hours, read-out: MIC Klebsiella pneumoniae ATCC13883
Text: as §1, §2, §3

[3] = test system: Pseudomonas aeruginosa strain ATCC27853; settings: ATCC27853, 18 h, cation-adjusted Mueller-Hinton broth, about 5×10^5 CFU/mL, 35° C., about 18 hours, read-out: MIC Pseudomonas aeruginosa ATCC27853
Text: as §1, §2, §3

MIC [1]	MIC [2]	MIC [3]	Structure (SMILES)
4 µg/mL (≈ 11 µM)	8 µg/mL (≈ 22.1 µM)	16 µg/mL (≈ 44.1 µM)	C[C@H](O)c1nccn1Cc1cc(-c2ccc(C#C[C@H]3C[C@H](N)C3)cc2)on1 [Compound 23, (1S)-1-{1-[(5-(4-[(trans-3-aminocyclobutyl)ethynyl]phenyl}-1,2-oxazol-3-yl)methyl]-1H-imidazol-2-yl}ethan-1-ol]
64 µg/mL (≈ 199 µM)	> 128 µg/mL	64 µg/mL (≈ 199 µM)	C[C@H](O)c1nccn1Cc1cc(-c2ccc(C#CCN)cc2)on1 [Compound 30, (1S)-1-[l-({5-[4-(3-aminoprop-1-yn-1-yl)phenyl]-1,2-oxazol-3-yl}methyl)-1H-imidazol-2-yl]ethan-1-ol]
2 µg/mL (≈ 4.33 µM)		4 µg/mL (≈ 8.67 µM)	CNC[C@H](c1cc(-c2ccc(C#C[C@@H]3[C@H]4CN(CCO)C[C@@H]34)cc2)on1)n1ccnc1[C@H](C)O [Compound 38, (1S)-1-{1-[(1R)-1-[5-(4-{[(1R,5S,6s)-3-(2-Hydroxyethyl)-3-azabicyclo[3.1.0]hexan-6-yl]ethynyl}phenyl)-1,2-oxazol-3-yl]-2-(methylamino)ethyl]-1H-imidazol-2-yl}ethan-1-ol]
0.12 µg/mL (≈ 0.33 µM)	0.25 µg/mL (≈ 0.688 µM)	16 µg/mL (≈ 44 µM)	C[C@H](O)c1nccn1Cc1cc(-c2ccc(C#C[C@H]3C[C@H](O)C3)cc2)on1 [Compound 54, trans-3-({4-[3-({2-[(1S)-1-Hydroxyethyl]-1H-imidazol-1-yl}methyl)-1,2-oxazol-5-yl]phenyl}ethynyl)cyclobutan-1-ol]
		8 µg/mL (≈ 19.8 µM)	C[C@H](O)c1nccn1[C@H](CN)c1cc(-c2ccc(C#CC3C4COCC34)cc2)on1 (stereo partly drawn) [Compound 58, (1S)-1-{1-[(1R)-2-amino-1-(5-{4-[(3-oxabicyclo[3.1.0]hexan-6-yl)ethynyl]phenyl}-1,2-oxazol-3-yl)ethyl]-1H-imidazol-2-yl} ethan-1-ol]
0.25 µg/mL (≈ 0.69 µM)	0.25 µg/mL (≈ 0.69 µM)	8 µg/mL (≈ 22.1 µM)	C[C@H](O)c1nccn1[C@H](CN)c1cc(-c2ccc(C#CC3CC3)cc2)on1 [Compound 60, (1S)-1-{1-[(1R)-2-amino-1-(5-[4-(cyclopropylethynyl)phenyl]-1,2-oxazol-3-yl}ethyl]-1H-imidazol-2-yl}ethan-1-ol]
2 µg/mL (≈ 4.34 µM)	4 µg/mL (≈ 8.69 µM)	8 µg/mL (≈ 17.4 µM)	C[C@H](O)c1nccn1Cc1cc(-c2ccc(C#C[C@@H]3[C@H]4CN(CCCC(=O)O)C[C@@H]34)cc2)on1 [Compound 67, 4-[(1R,5S,6s)-6-({4-[3-({2-[(1S)-1-Hydroxyethyl]-1H-imidazol-1-yl}methyl)-1,2-oxazol-5-yl]phenyl}ethynyl)-3-azabicyclo[3.1.0]hexan-3-yl]butanoic acid]
0.25 µg/mL (≈ 0.637 µM)	2 µg/mL (≈ 5.1 µM)	64 µg/mL (≈ 163 µM)	C[C@H](O)c1nccn1[C@H](CN)c1cc(-c2ccc(C#CC3CCOC3)cc2)on1 (stereo partly drawn) [Compound 75, (1S)-1-{1-[(1R)-2-amino-1-(5-{4-[(oxolan-3-yl)ethynyl]phenyl}-1,2-oxazol-3-yl)ethyl]-1H-imidazol-2-yl} ethan-1-ol]
0.12 µg/mL (≈ 0.33 µM)	0.25 µg/mL (≈ 0.688 µM)	16 µg/mL (≈ 44 µM)	C[C@H](O)c1nccn1Cc1cc(-c2ccc(C#C[C@H]3C[C@@H](O)C3)cc2)on1 [Compound 88, cis-3-({4-[3-((2-[(1S)-1-Hydroxyethyl]-1H-imidazol-1-yl}methyl)-1,2-oxazol-5-yl]phenyl}ethynyl)cyclobutan-1-ol]
2 µg/mL (≈ 4.73 µM)	8 µg/mL (≈ 18.9 µM)	4 µg/mL (≈ 9.47 µM)	C[C@H](O)c1nccn1[C@H](CN)c1cc(-c2ccc(C#C[C@H]3C[C@@](O)(CO)C3)cc2)on1 [Compound 89, trans-3-[(4-(3-[(1R)-2-Amino-1-{2-[(1S)-1-hydroxyethyl]-1H-imidazol-1-yl}ethyl]-1,2-oxazol-5-yl}phenyl)ethynyl]-1-(hydroxymethyl)cyclobutan-1-ol]
4 µg/mL (≈ 9.47 µM)	8 µg/mL (≈ 18.9 µM)	4 µg/mL (≈ 9.47 µM)	C[C@H](O)c1nccn1[C@H](CN)c1cc(-c2ccc(C#C[C@H]3C[C@](O)(CO)C3)cc2)on1 [Compound 90, cis-3-[(4-{3-[(1R)-2-amino-1-{2-[(1S)-1-hydroxyethyl]-1H-imidazol-1-yl}ethyl]-1,2-oxazol-5-yl}phenyl)ethynyl]-1-(hydroxymethyl)cyclobutan-1-ol]
	8 µg/mL (≈ 18 µM)	32 µg/mL (≈ 71.8 µM)	CC(=O)N1C[C@@H]2[C@@H](C#Cc3ccc(-c4cc([C@@H](CN)n5ccnc5[C@H](C)O)no4)cc3)[C@@H]2C1 [Compound 91, 1-{(1R,5S,6s)-6-[(4-{3-[(1R)-2-Amino-1-{2-[(1S)-1-hydroxyethyl]-1H-imidazol-1-yl}ethyl]-1,2-oxazol-5-yl}phenyl)ethynyl]-3-azabicyclo[3.1.0]hexan-3-yl}ethan-1-one]
	4 µg/mL (≈ 10.2 µM)		C[C@H](O)c1nccn1[C@H](CN)c1cc(-c2ccc(C#C[C@H]3C[C@H](O)C3)cc2)no1 [Compound 100, trans-3-[(4-{5-[(1R)-2-amino-1-{2-[(1S)-1-hydroxyethyl]-1H-imidazol-1-yl}ethyl]-1,2-oxazol-3-yl}phenyl)ethynyl]cyclobutan-1-ol]
0.5 µg/mL (≈ 1.08 µM)	1 µg/mL (≈ 2.17 µM)	2 µg/mL (≈ 4.33 µM)	COCCN1C[C@@H]2[C@@H](C#Cc3ccc(-c4cc([C@@H](CN)n5ccnc5[C@H](C)O)no4)cc3)[C@@H]2C1 [Compound 101, (1S)-1-(1-{(1R)-2-Amino-1-[5-(4-{[(1R,5S,6s)-3-(2-methoxyethyl)-3-azabicyclo[3.1.0]hexan-6-yl]ethynyl}phenyl)-1,2-oxazol-3-yl]ethyl}-1H-imidazol-2-yl)ethan-1-ol]
2 µg/mL (≈ 4.77 µM)	4 µg/mL (≈ 9.54 µM)	8 µg/mL (≈ 19.1 µM)	C[C@H](O)c1nccn1[C@H](CN)c1cc(-c2ccc(C#C[C@H]3C[C@H](NC=O)C3)cc2)on1 [Compound 106, N-{trans-3-[(4-{3-[(1R)-2-amino-1-(2-[(1S)-1-hydroxyethyl]-1H-imidazol-1-yl}ethyl]-1,2-oxazol-5-yl}phenyl)ethynyl]cyclobutyl}formamide]
4 µg/mL (≈ 8.17 µM)	16 µg/mL (≈ 32.7 µM)	4 µg/mL (≈ 8.17 µM)	C[C@H](O)c1nccn1[C@H](CN)c1cc(-c2ccc(C#C[C@@H]3[C@H]4CN(CCCC(=O)O)C[C@@H]34)cc2)on1 [Compound 113, 4-{(1R,5S,6s)-6-[(4-{3-[(1R)-2-amino-1-{2-[(1S)-1-hydroxyethyl]-1H-imidazol-1-yl}ethyl]-1,2-oxazol-5-yl}phenyl)ethynyl]-3-azabicyclo[3.1.0]hexan-3-yl}butanoic acid]
4 µg/mL (≈ 9.23 µM)	8 µg/mL (≈ 18.5 µM)	16 µg/mL (≈ 36.9 µM)	CC(=O)N[C@H]1C[C@H](C#Cc2ccc(-c3cc([C@@H](CN)n4ccnc4[C@H](C)O)no3)cc2)C1 [Compound 115, N-{trans-3-[(4-{3-[(1R)-2-amino-1-{2-[(1S)-1-hydroxyethyl]-1H-imidazol-1-yl}ethyl]-1,2-oxazol-5-yl}phenyl)ethynyl]cyclobutyl} acetamide]
1 µg/mL (≈ 2.32 µM)	2 µg/mL (≈ 4.64 µM)	8 µg/mL (≈ 18.5 µM)	C[C@H](O)c1nccn1[C@H](CN)c1cc(-c2ccc(C#C[C@@H]3[C@H]4CN(C=O)C[C@@H]34)cc2)on1 [Compound 117, (1R,5S,6s)-6-[(4-{3-[(1R)-2-amino-1-{2-[(1S)-1-hydroxyethyl]-1H-imidazol-1-yl}ethyl]-1,2-oxazol-5-yl}phenyl)ethynyl]-3-azabicyclo[3.1.0]hexane-3-carbaldehyde]
0.25 µg/mL (≈ 0.542 µM)	0.5 µg/mL (≈ 1.08 µM)	4 µg/mL (≈ 8.67 µM)	COC(=O)N1C[C@@H]2[C@@H](C#Cc3ccc(-c4cc([C@@H](CN)n5ccnc5[C@H](C)O)no4)cc3)[C@@H]2C1 [Compound 118, methyl (1R,5S,6s)-6-[(4-{3-[(1R)-2-amino-1-{2-[(1S)-1-hydroxyethyl]-1H-imidazol-1-yl}ethyl]-1,2-oxazol-5-yl}phenyl)ethynyl]-3-azabicyclo[3.1.0]hexane-3-carboxylate]
	32 µg/mL (≈ 76.1 µM)	8 µg/mL (≈ 19 µM)	C[C@H](O)c1nccn1[C@H](CN)c1cc(-c2ccc(C#CC3CC(C(=O)O)C3)cc2)on1 (stereo partly drawn) [Compound 130, 3-[(4-{3-{(1R)-2-amino-1-(2-[(1S)-1-hydroxyethyl]-1H-imidazol-1-yl}ethyl]-1,2-oxazol-5-yl}phenyl)ethynyl]cyclobutane-1-carboxylate]
	32 µg/mL (≈ 73.5 µM)	4 µg/mL (≈ 9.18 µM)	C[C@H](O)c1nccn1[C@H](CN)c1cc(-c2ccc(C#C[C@H]3C[C@H](NCCO)C3)cc2)on1 [Compound 134, (1S)-1-{1-[(1R)-2-amino-1-{5-[4-({trans-3-[(2-hydroxyethyl)amino]cyclobutyl}ethynyl)phenyl]-1,2-oxazol-3-yl}ethyl]-1H-imidazol-2-yl}ethan-1-ol]
	4 µg/mL (≈ 8.67 µM)	4 µg/mL (≈ 8.67 µM)	C[C@H](O)c1nccn1[C@H](CN)c1cc(-c2ccc(C#C[C@@H]3[C@H]4CN(C[C@@H](C)O)C[C@@H]34)cc2)on1 [Compound 137, (R)-1-((1R,5S,6R)-6-((4-(3-((R)-2-amino-1-(2-((S)-1-hydroxyethyl)-1H-imidazol-1-yl)ethyl)isoxazol-5-yl)phenyl)ethynyl)-3-azabicyclo[3.1.0]hexan-3-yl)propan-2-ol]
